Source: patent EP2565188A1, “Novel photoactivatable paclitaxel derivatives and uses thereof, in particular in cellbiology and cancer treatment” (Max-Planck-Gesellschaft zur Förderung der Wissenschaften …, priority 2011, dated 2013)

Tests used:
HeLa cells [1] = experiment: Live cell imaging of the microtubule network (Tubulin Tracker / DRAQ5, CLSM); type: cell-based, Human; details: for microtubule staining by Tubulin Tracker (fluorescence CLSM) / cell morphology / mitosis in microscopy images: 10 µM; for microtubule staining by Tubulin Tracker (fluorescence CLSM) / inhibition of PTX bioactivity / binding of PTX to β-tubulin by the cage / cell morphology / mitosis in microscopy images / concentrations at which the derivative bound to tubulin / concentration triggering the multiple nuclei pattern: 24 h; for inhibition of PTX bioactivity / binding of PTX to β-tubulin by the cage: concentrations up to 10 µM
Experimental: (§1) Human cervix carcinoma cells, HeLa cells (#ACC57, DMSZ, Germany), were cultured in DMEM medium (Invitrogen) supplemented with 10% fetal calf serum (FCS, Gibco) in a humidified incubator at 37°C/5%CO2.
In order to visualize the influence of the PTX derivatives in the microtubule network of the cell, a live cell microscopy analysis of HeLa cells after incubation with 10 µM PTX derivatives for 24 hours was performed.
Specifically, microtubules and nuclei of HeLa cells were fluorescently stained with Tubulin Tracker (Invitrogen) and DRAQ5 (biostatus, United Kingdom) respectively, and imaged by a Leica TCS SP5 confocal laser scanning microscopy (CLSM). 30x10^4 HeLa cells were seeded in 8-well chamber slides (Lab-Tek, nunc, Germany) and the culture medium was replaced after ~16 h by compound supplemented medium (250 µL, DMEM, 10% FCS, 1% DMSO) or medium without compound (DMEM, 10% FCS, 1% DMSO) as a specific control. After 24h, cells were carefully washed with Hank's Buffered Saline Solution (HBSS, with Ca^2+ and Mg^2+, Invitrogen) and the buffer was replaced by a staining solution containing 250 nM Tubulin Tracker (Invitrogen) and 5 µM DRAQ5. The cells were stained for 30 min at 37°C/5% CO2 in a humidified incubator. The staining solution was replaced by HBSS and the cells were directly imaged with a 100x plan apochromat (1.4 NA) oil immersion objective on the CLSM system equipped with a CO2 incubator and a temperature control. Tubulin Tracker was excited with an argon laser (488 nm) and the emission was detected by 500-580 nm. DRAQ5 was excited with a HeNe laser (633 nm) and the emission was detected by 650-730 nm. The images have a voxel height and width of 90 nm. Bright field images grabbed with an Olympus IX-70 inverted microscope with a 20x phase contrast objective. Image processing performed with Leica LAS AF lite and ImageJ (Fiji).

[2] = Photocleavage study: irradiation at 360 nm, composition by HPLC; type: physicochemical; details: 1 mM, 5% water in acetonitril, share of the labelled species
Experimental: The photolysis of the compounds 2'-Nvoc-PTX and 2',7-bisNvoc-PTX was followed by UV and HPLC analysis of the correspondent solutions after exposure to light at λmax = 360 nm (2.7 mW/cm^2).
3 ml of a 1 mM solution of caged PTX in acetonitrile containing 5% water was placed into a quartz cuvette and was exposed at 360 nm for different irradiation times. Aliquots of 50 µl were taken after various irradiation times, and each aliquot was splitted in two parts. 20 µl were diluted to 400 µl to obtain 50 µM solution for UV-Vis characterisation. The 30 µl left from each aliquot were injected into the HPLC (20 µl loop, analytical column) in order to estimate the composition of the irradiated mixture.
Photocleavage of compound 2',7-bisNvoc-PTX was expected to yield the mono-substituted species 2'-Nvoc-PTX and 7-Nvoc-PTX as intermediates that can be further photolyzed to afford free PTX. In fact, HPLC analysis (Fig. 1) confirmed the presence of 2'-Nvoc-PTX (retention time, r.t.= 16.7 min) and 7-Nvoc-PTX (r.t. = 18.2 min) together with the starting compound 2',7-bisNvoc-PTX (r.t. = 21.3 min) and the fully deprotected PTX (r.t. = 11.1 min). The ratio of these compounds within the composition of the irradiated mixture changes with the exposure dose. Fig. 2 and Table B below show the compositional evolution of the mixture with increasing irradiation time as obtained by HPLC analysis. […] However, the influence of other structural factors in the photolytic mechanism cannot be ruled out. Compound 7-Nvoc-PTX could also be isolated from the irradiated mixture in milligram scale. Table B. Molar composition of a solution of 2',7-bisNvoc-PTX (1 mM, 5% water in acetonitril) after different irradiation times, as determined by analysis of HPLC graphs (Fig. 2)

HeLa cells [3] = type: cell-based, Human; details: for cytotoxicity: concentrations at least up to 10 µM
Experimental: as §1
In order to evaluate the bioactivity of the caged PCT derivatives, their cytotoxicity was tested in vitro using HeLa cells. Cells were incubated with PTX and caged PTX derivatives at concentrations between 0.01 and 10 µM.
The effect of PTX and derivatives on cell vitality was measured in a combined assay determining cytotoxicity and cell number by propidium iodide (PI) staining. HeLa cells (2x10^4 cells/well) were diluted in cell culture medium (DMEM, 10 % FCS) and seeded in 96 well-plates (black plate, clear bottom, corning, Amsterdam, Netherlands). The culture medium was replaced after ~16h by compound supplemented medium (200 µL, DMEM, 10 % FCS, 1 % DMSO) or medium without compound (DMEM, 10 % FCS, 1 % DMSO) as a specific control. After 48 h, dead cells with permeable cell membranes were stained with PI ([…], 15 min at 37°C, 5% CO2) and the PI fluorescence intensity was measured with a fluorescence plate reader (excitation wavelength 530 nm, emission wavelength 620 nm, Tecan Infinite M1000, Austria). Subsequently, the cells were lysed with 2% Triton X-100 diluted in DMEM (0.3% Triton X-100 per well, 15 min at 37°C, 5% CO2 and the PI fluorescence was measured again. The vitality of the cells was calculated by the ratio of dead cells (DC) before lyses and the total cell number (TCN) after lyses (1-DC/TCN).

[4] = Solubility test of 10 µM solutions in 1:1000 DMSO:PIPES buffer; type: physicochemical
Experimental: 10 mM solutions of PTX derivatives in DMSO were prepared. All substances were soluble in DMSO at this concentration. 10 µM solutions of were obtained by 1:1000 dilution of the stock solution into 80 mM PIPES buffer pH 6.8, containing 2 mM MgCl2 and 1 mM EGTA. Table A: solubility test of 10 µM solutions of PTX derivatives in 1:1000 DMSO:PIPES buffer

[5] = 360 nm (2.7 mW/cm^2), irradiation time 0 min
[6] = 360 nm, irradiation time 60 min
[7] = 360 nm, irradiation time 270 min
[8] = 360 nm, irradiation time 450 min
[9] = 360 nm, irradiation time 570 min
[10] = 360 nm, irradiation time 735 min
[11] = 360 nm, irradiation time 820 min
[12] = 360 nm, irradiation time 1585 min
[13] = 10 µM in 1:1000 DMSO:PIPES buffer (80 mM, pH 6.8), time 1 hr
[14] = 10 µM in 1:1000 DMSO:PIPES buffer (80 mM, pH 6.8), time 8 hrs
[15] = 10 µM in 1:1000 DMSO:PIPES buffer (80 mM, pH 6.8), time 24 hrs
[16] = 10 µM in 1:1000 DMSO:PIPES buffer (80 mM, pH 6.8), time 30 hrs
[17] = 10 µM in 1:1000 DMSO:PIPES buffer (80 mM, pH 6.8, 2 mM MgCl2, 1 mM EGTA), time 5 min

SMILES | microtubule staining by Tubulin Tracker (fluorescence CLSM) (HeLa cells [1]) | inhibition of PTX bioactivity / binding of PTX to β-tubulin by the cage (HeLa cells [1]) | Molar composition of a solution of 2',7-bisNvoc-PTX after irradiation [2, 5] [%] | Molar composition of a solution of 2',7-bisNvoc-PTX after irradiation [2, 6] [%] | Molar composition of a solution of 2',7-bisNvoc-PTX after irradiation [2, 7] [%] | Molar composition of a solution of 2',7-bisNvoc-PTX after irradiation [2, 8] [%] | Molar composition of a solution of 2',7-bisNvoc-PTX after irradiation [2, 9] [%] | Molar composition of a solution of 2',7-bisNvoc-PTX after irradiation [2, 10] [%] | Molar composition of a solution of 2',7-bisNvoc-PTX after irradiation [2, 11] [%] | Molar composition of a solution of 2',7-bisNvoc-PTX after irradiation [2, 12] [%] | cytotoxicity (HeLa cells [3]; 48 h) | solubility test (appearance of solution) [4, 13] | solubility test (appearance of solution) [4, 14] | solubility test (appearance of solution) [4, 15] | solubility test (appearance of solution) [4, 16] | solubility test (appearance of solution) [4, 17] | cell morphology / mitosis in microscopy images (HeLa cells [1]) | concentrations at which the derivative bound to tubulin (HeLa cells [1]) [nM] | other results
COc1cc(COC(=O)O[C@H]2C[C@H]3OC[C@@]3(OC(C)=O)[C@H]3[C@H](OC(=O)c4ccccc4)[C@]4(O)C[C@H](OC(=O)[C@H](OC(=O)OCc5cc(OC)c(OC)cc5[N+](=O)[O-])[C@@H](NC(=O)c5ccccc5)c5ccccc5)C(C)=C([C@@H](OC(C)=O)C(=O)[C@]23C)C4(C)C)c([N+](=O)[O-])cc1OC [2',7-bisNvoc-PTX] | evenly stained by Tubulin Tracker and showed similar patterns than the negative control | effectively inhibited binding of PTX to β-tubulin | 100 | 90.5 | 72.3 | 51.1 | 42.2 | 27.5 | 24.3 | 6.1 | did not show any cytotoxicity | clear solution | clear solution | clear solution | turbid solution | clear solution | – | – | vitality of cells after incubation with irradiated solutions (HeLa cells [3]; irradiated solutions of 2',7-bisNvoc-PTX, longer irradiation times): 0.5; cytotoxic effects of irradiated solutions (HeLa cells [3]; irradiated solutions of 2',7-bisNvoc-PTX, shortest irradiation time): Cytotoxic effects were visible already at the shortest irradiation time
COc1cc(COC(=O)O[C@@H](C(=O)O[C@H]2C[C@@]3(O)[C@@H](OC(=O)c4ccccc4)[C@@H]4[C@]5(OC(C)=O)CO[C@@H]5C[C@H](O)[C@@]4(C)C(=O)[C@H](OC(C)=O)C(=C2C)C3(C)C)[C@@H](NC(=O)c2ccccc2)c2ccccc2)c([N+](=O)[O-])cc1OC [2'-Nvoc-PTX] | – | not able to completely inhibit PTX bioactivity | 0 | 6.3 | 17.4 | 27.6 | 32.3 | 35.6 | 38.1 | 25.6 | – | clear solution | clear solution | turbid solution | Suspension | clear solution | showed similar results to free PTX | > 10 | concentration triggering the multiple nuclei pattern (HeLa cells [1]; patterns similar between the compounds (Fig. 6)): 0.05 µM; reduction in vitality (HeLa cells [3]; 48 h, at 0.5 µM): ~ 25%; concentration range over which the derivative can be regarded as caged PTX (HeLa cells [3]; vitality results): < 0.1 µM
COc1cc(COC(=O)O[C@H]2C[C@H]3OC[C@@]3(OC(C)=O)[C@H]3[C@H](OC(=O)c4ccccc4)[C@]4(O)C[C@H](OC(=O)[C@H](O)[C@@H](NC(=O)c5ccccc5)c5ccccc5)C(C)=C([C@@H](OC(C)=O)C(=O)[C@]23C)C4(C)C)c([N+](=O)[O-])cc1OC [7-Nvoc-PTX] | microtubules were less stained, tripolar spindles appeared and the cells developed multiple nuclei with different sizes | not able to completely inhibit PTX bioactivity | 0 | 3.2 | 8.6 | 15.3 | 14.9 | 18.4 | 16.4 | 7.8 | did not show any cytotoxicity | – | – | – | – | – | formed an adherent monolayer similar to the negative control | > 1000 | concentration triggering the multiple nuclei pattern (HeLa cells [1]; pattern similar to 2 nM PTX (Fig. 6)): 10 µM; prevention of mitotic blocking relative to 2'-Nvoc-PTX (HeLa cells [1]; at the concentration tested (10 µM)): ~ 200 fold
